Measurements taken from patent US8178558B2, “Substituted pyridylmethyl bicycliccarboxyamide compounds” (Pfizer Inc., priority 2006, dated 2012).

target: T1, human VR1 receptors (Homo sapiens, UniProt Q8NER1); test: Human VR1 antagonist assay (Ca2+ imaging); assay type: cell-based; settings: Ca2+ imaging (fura-2/AM) in cells highly expressing human VR1; agonist stimulation
T1 construct: host or cells: cells that express human VR1 receptors (cell type not specified)
Text: Human VR1 Antagonist Assay
VR1 antagonistic activity can be determined by the Ca^2+ imaging assay using human VR1 highly expressing cells. The cells that highly express human VR1 receptors are obtainable from several different conventional methods. The one standard method is cloning from human Dorsal Root Ganglion (DRG) or kidney according to the methods such as described in the journal article; Nature, 389, pp 816-824, 1997. Alternatively VR1 receptors highly expressing human keratinocytes are also known and published in the journal article (Biochemical and Biophysical Research Communications, 291, pp 124-129, 2002). […] Furthermore, the method to up regulate human VR1 gene, which is usually a silent gene or don't produce detectable level of VR1 receptors, is also available to obtain propriety cells. Such genetic modification method was described in detail; Nat. Biotechnol., 19, pp 440-445, 2001.
The cells that express human VR1 receptors were maintained in culture flask at 37° C. in an environment containing 5% CO2 until use in the assay. The intracellular Ca^2+ imaging assay to determine VR1 antagonistic activities were done by following procedures.
The culture medium was removed from the flask and fura-2/AM fluorescent calcium indicator was added to the flask at a concentration of 5 μM in the medium. The flask was placed in CO2 incubator and incubated for 1 hour. Then the cells expressing the human VR1 receptors were detached from the flask follow by washing with phosphate buffer saline, PBS(−) and re-suspended in assay buffer. The 80 μl of aliquot of cell suspension (3.75×10^5 cells/ml) was added to the assay plate and the cells were spun down by centrifuge (950 rpm, 20° C., 3 minutes).
The compounds of the examples were tested in the Human VR1 antagonist assay described above.
Capsaicin Stimulation Assay
The capsaicin-induced changes in the intracellular calcium concentration were monitored using FDSS 6000 (Hamamatsu Photonics, Japan), a fluorometric imaging system. The cell suspension in Krebs-Ringer HEPES (KRH) buffer (115 mM NaCl, 5.4 mM KCl, 1 mM MgSO4, 1.8 mM CaCl2, 11 mM D-Glucose, 25 mM HEPES, 0.96 mM Na2HPO4, pH 7.3) were pre-incubated with varying concentrations of the test compounds or KRH buffer (buffer control) for 15 minutes at room temperature under the dark condition. Then capsaicin solution, which gives 300 nM in assay mixture, was automatically added to the assay plate by the FDSS 6000.
The Acid-induced changes in the intracellular calcium concentration were monitored using FDSS 6000 (Hamamatsu Photonics, Japan), a fluorometric imaging system. The cell suspension in resting buffer (HBSS supplemented with 10 mM HEPES, pH 7.4) were pre-incubated with varying concentrations of the test compounds or resting buffer (buffer control) for 15 minutes at room temperature under the dark condition. The cells were automatically added the stimulating solution (HBSS supplemented with MES, final assay buffer pH5.8) by the FDSS 6000.
Determination of Antagonist Activity
The monitoring of the changes in the fluorescence signals (λex=340 nm/380 nm, λem=510-520 nm) was initiated at 1 minute prior to the addition of capsaicin solution or acidic buffer and continued for 5 minute.

T1 sequence (Q8NER1 whole entry): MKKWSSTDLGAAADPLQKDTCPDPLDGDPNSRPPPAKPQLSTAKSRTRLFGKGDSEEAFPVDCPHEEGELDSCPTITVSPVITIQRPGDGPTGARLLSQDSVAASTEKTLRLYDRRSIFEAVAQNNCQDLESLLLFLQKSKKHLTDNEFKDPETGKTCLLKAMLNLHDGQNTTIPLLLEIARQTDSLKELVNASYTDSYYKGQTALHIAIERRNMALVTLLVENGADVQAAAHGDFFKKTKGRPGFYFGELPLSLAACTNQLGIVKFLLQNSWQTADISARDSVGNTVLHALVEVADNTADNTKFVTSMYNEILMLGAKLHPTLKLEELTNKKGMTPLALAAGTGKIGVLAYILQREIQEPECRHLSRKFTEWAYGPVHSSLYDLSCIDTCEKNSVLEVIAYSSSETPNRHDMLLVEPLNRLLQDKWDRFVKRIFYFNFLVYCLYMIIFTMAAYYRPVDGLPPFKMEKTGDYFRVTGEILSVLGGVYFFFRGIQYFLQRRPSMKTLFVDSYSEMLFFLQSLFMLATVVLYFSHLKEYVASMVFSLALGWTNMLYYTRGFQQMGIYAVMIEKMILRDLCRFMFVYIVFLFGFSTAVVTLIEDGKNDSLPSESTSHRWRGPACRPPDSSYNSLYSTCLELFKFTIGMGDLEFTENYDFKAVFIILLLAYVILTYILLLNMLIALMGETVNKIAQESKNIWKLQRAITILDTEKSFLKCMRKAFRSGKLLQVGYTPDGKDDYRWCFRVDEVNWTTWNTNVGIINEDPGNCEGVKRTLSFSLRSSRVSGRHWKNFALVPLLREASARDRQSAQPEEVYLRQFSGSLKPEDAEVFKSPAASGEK

IC50	SMILES
451 nM	C[C@@H](NC(=O)c1ccc2cc(C(C)(C)C)ccc2c1)c1ccncc1 [Example C1, 6-tert-butyl-N-[(1R)-1-pyridin-4-ylethyl]-2-naphthamide]
203 nM	COc1cc(CNC(=O)c2ccc3cc(C(C)(C)C)ccc3c2)ccn1 [Example C2, 6-tert-butyl-N-[(2-methoxypyridin-4-yl)methyl]-2-naphthamide]
77.5 nM	Cc1cc([C@@H](C)NC(=O)c2ccc3cc(C(C)(C)C)ccc3c2)ccn1 [Example C3, 6-tert-butyl-N-[(1R)-1-(2-methylpyridin-4-yl)ethyl]-2-naphthamide]
32.5 nM	Cc1cc(CNC(=O)c2ccc3cc(C(C)(C)C)ccc3c2)c(C)cn1 [Example C4, 6-tert-butyl-N-[(2,5-dimethylpyridin-4-yl)methyl]-2-naphthamide]
231 nM	Cc1cc(CNC(=O)c2ccc3cc(C(C)(C)C)ccc3n2)ccn1 [Example D1]
85.1 nM	Cc1cc(CNC(=O)c2ccc3cc(C(C)(C)C)ccc3n2)c(C)cn1 [Example D2]

Second part, the compound before the results:

SMILES	IC50
Oc1cc2c(cc1O)CN(C(=S)NCCc1ccc(Cl)cc1)CCC2 [Capsazepine, reference compound]	237 to 455 nM
Cc1ccc(CNC(=O)c2ccc3cc(C(C)(C)C)ccc3c2)cn1 [Example A1, 6-tert-butyl-N-[(6-methylpyridin-3-yl)methyl]-2-naphthamide]	250 nM
Cc1ccc(C(C)NC(=O)c2ccc3cc(C(C)(C)C)ccc3c2)cn1 (centres unmarked) [Example A2, 6-tert-butyl-N-[1-(6-methylpyridin-3-yl)ethyl]-2-naphthamide]	67.8 nM
Cc1ccc([C@@H](C)NC(=O)c2ccc3cc(C(C)(C)C)ccc3c2)cn1 [Example A3, 6-tert-butyl-N-[(1R)-1-(6-methylpyridin-3-yl)ethyl]-2-naphthamide]	96 nM
Cc1ncc([C@@H](C)NC(=O)c2ccc3cc(C(C)(C)C)ccc3c2)cc1Cl [Example A4, 6-tert-butyl-N-[(1R)-1-(5-chloro-6-methylpyridin-3-yl)ethyl]-2-naphthamide]	271 nM
C[C@@H](NC(=O)c1ccc2cc(C(C)(C)C)ccc2c1)c1ccc(CO)nc1 [Example A5, 6-tert-butyl-N-{(1R)-1-[6-(hydroxymethyl)pyridin-3-yl]ethyl}-2-naphthamide]	127 nM
CC[C@@H](NC(=O)c1ccc2cc(C(C)(C)C)ccc2c1)c1ccc(C)nc1 [Example A6, (R)-6-tert-butyl-N-(1-(6-methylpyridin-3-yl)propyl)-2-naphthamide]	261 nM
Cc1ccc([C@@H](C)NC(=O)c2ccc3cc(C(C)(C)C)ccc3n2)cn1 [Example B1, 6-tert-butyl-N-[(1R)-1-(6-methylpyridin-3-yl)ethyl]quinoline-2-carboxamide]	426 nM
